In patent publication US9102919B2, “WNT pathway stimulation in reprogramming somatic cells with nuclear reprogramming factors” (Whitehead Institute for Biomedical Research, priority 2007, dated 2015):

What was measured:
GSK3 = settings: cited from earlier work
26 other kinases = settings: cited from earlier work
[1] = system: MEFs overexpressing Oct4/Sox2/Klf4/c-Myc; assay: G418-resistant colony formation in four-factor MEFs; assay type: cell-based, mouse
Procedure: (§1) Cell culture, viral infections, induction of gene expression. Cells were cultured in 15% FBS, DMEM-KO, Penn/Step, Glutamine, Nonessential amino acids, β-ME, and LIF. Mouse embryo fibroblasts (MEFs) with an Oct4-IRES-eGFP construct (Meissner, A., et al., Nature Biotechnology, Direct reprogramming of genetically unmodified fibroblasts into pluripotent stem cells. Published online: 27 Aug. 2007|doi:10.1038/nbt1335) inserted into the endogenous Oct4 locus were infected with lentiviral vectors driving the doxycycline-inducible expression of Oct4, Sox2, Klf4 and c-Myc or only Oct4, Sox2, and Klf4. The vectors were based on the FUGW lentiviral vector backbone (Lois C, et al., Science 2002; 295: 868-872.), modified to include a tet-inducible promoter. Two days following infection cells were split and induced with doxycycline in the presence or absence of Wnt3a conditioned media (used in a 1:1 dilution with normal ES media with 2×LIF). These cells were monitored for GFP expression by flow cytometry at day 13 and again at day 20. In parallel, MEFs with doxycycline-inducible Oct4 expressed from the collagen locus and Oct4-IRES-(neo resistance) inserted into the endogenous Oct4 locus were infected with lentiviruses driving the overexpression of either Sox2, Klf4 and c-Myc or Sox2 and Klf4. Again, two days following infection cells were split and induced with doxycycline in the presence or absence of Wnt3a conditioned media. […] Following at least one week of G418 selection, resistant colonies were examined and counted.
Conditioned medium. Wnt 3a conditioned media (CM) was collected from mouse L cells that had been transfected with Wnt3a cDNA (Shibamoto et al. 1998). These cells are available through ATCC(CRL-2647) along with the untransfected parent cell line (CRL-2648) to use for control conditioned medium. […]
We hypothesized that stimulation of the stimulation of the Wnt pathway using soluble factors could modulate the efficiency of inducing pluripotency in somatic cells. […] GFP expression was analyzed by FACS on day 13 and 20. […] Surviving colonies were counted on day 20. […]

[2] = system: MEFs over-expressing Oct4/Sox2/Klf4; assay: G418-resistant colony formation in three-factor (Myc[-]) MEFs; assay type: cell-based, mouse; settings: 4 μM; three factors in Wnt3a-CM; G418 day 15; scored day 28
Procedure: as §1, with “20.” for “20. In parallel, MEFs with doxycycline-inducible Oct4 expressed from the collagen locus and Oct4-IRES-(neo resistance) inserted into the endogenous Oct4 locus were infected with lentiviruses driving the overexpression of either Sox2, Klf4 and c-Myc or Sox2 and Klf4. Again, two days following infection cells were split and induced with doxycycline in the presence or absence of Wnt3a conditioned media.”, “counted. […]” for “counted.”
We hypothesized that stimulation of the stimulation of the Wnt pathway using soluble factors could modulate the efficiency of inducing pluripotency in somatic cells. […] GFP expression was analyzed by FACS on day 13 and 20. […]

PKC = settings: at >100 μM; cited from earlier work
PKA = settings: at >100 μM; cited from earlier work
Cdk-1/cyclin B = Cdk-1/cyclin B (Homo sapiens, UniProt P06493); settings: at >100 μM; cited from earlier work
CK-II = settings: at >100 μM; cited from earlier work
histone deacetylase = settings: cited from earlier work

Chain of Cdk-1/cyclin B (P06493 whole entry, species assumed): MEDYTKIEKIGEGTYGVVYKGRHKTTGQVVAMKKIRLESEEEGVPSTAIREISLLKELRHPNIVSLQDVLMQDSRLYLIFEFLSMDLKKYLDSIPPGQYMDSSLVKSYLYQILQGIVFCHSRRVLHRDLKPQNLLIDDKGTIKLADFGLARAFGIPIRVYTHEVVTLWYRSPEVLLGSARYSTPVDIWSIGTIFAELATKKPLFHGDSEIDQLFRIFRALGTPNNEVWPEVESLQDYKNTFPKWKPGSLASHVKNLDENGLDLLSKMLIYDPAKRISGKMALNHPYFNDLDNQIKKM
Chain of Cdk-1/cyclin B (P14635 whole entry partner, species assumed): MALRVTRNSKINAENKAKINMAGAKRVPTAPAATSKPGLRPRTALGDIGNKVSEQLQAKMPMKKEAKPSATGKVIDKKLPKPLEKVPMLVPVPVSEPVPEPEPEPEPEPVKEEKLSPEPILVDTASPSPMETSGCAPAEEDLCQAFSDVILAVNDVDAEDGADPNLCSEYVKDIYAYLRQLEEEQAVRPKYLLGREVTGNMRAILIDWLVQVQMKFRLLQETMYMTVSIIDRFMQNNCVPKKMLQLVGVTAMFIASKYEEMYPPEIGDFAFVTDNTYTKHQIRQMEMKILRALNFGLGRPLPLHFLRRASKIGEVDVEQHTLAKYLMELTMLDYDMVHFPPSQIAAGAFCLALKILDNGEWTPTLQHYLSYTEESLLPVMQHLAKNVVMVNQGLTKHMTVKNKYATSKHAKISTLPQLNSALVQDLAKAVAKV

For `COc1ccc(CNC(=O)Nc2ncc([N+](=O)[O-])s2)cc1` [AR-A014418, N-(4-Methoxybenzyl)-N′-(5-nitro-1,3-thiazol-2-yl)urea], the Ki (GSK3) is given as […] and the “inhibition of other kinases” value (26 other kinases) is given as “does not significantly inhibit”.

In the case of `O=C1[C@H](Cc2ccc(O)cc2)N2C(=O)CCN(C(=O)NCc3ccccc3)[C@H]2CN1Cc1cccc2ccccc12` [ICG-001], the “effect on number of G418 colonies in c-Myc transduced cells” value ([1]; 4 μM, four factors in Wnt3a-CM, selection day 10, assessed day 20) is reported as “only a subtle effect”, the iPS colonies ([1]; 25 μM, four factors (data not shown)) is reported as “multiple Oct4/Sox2/Klf4/c-Myc iPS colonies were observed” and the iPS colony numbers ([1]; higher doses than 4 μM, four factors (data not shown)) is reported as “further reduced”. For the same compound, the “effect on Wnt3a-CM promoted Myc[-] iPS formation” value [2] was “strongly inhibited”.

For `Cn1sc(=O)n(Cc2ccccc2)c1=O` [TDZD-8, 4-Benzyl-2-methyl-1,2,4-thiadiazolidine-3,5-dione], the inhibition (PKC) is listed as “does not inhibit”, the inhibition (PKA) is listed as “does not inhibit” and the inhibition (Cdk-1/cyclin B) is listed as “does not inhibit”. For the same compound, the inhibition (CK-II) was “does not inhibit”.

For `CC(/C=C/C(=O)NO)=C\[C@@H](C)C(=O)c1ccc(N(C)C)cc1` [Trichostatin A, [R-(E,E)]-7-[4-(Dimethylamino)phenyl]-N-hydroxy-4,6-dimethyl-7-oxo-2,4-heptadienamide], the “inhibition of histone deacetylase” value (histone deacetylase) is listed as “inhibits histone deacetylase at nanomolar concentrations”.
